The source of these data is article PMC11765717, “In Vitro Insights into Bacteriocin-Mediated Modulation of Chicken Cecal Microbiota” (International Journal of Molecular Sciences, 2025).

≈ marks a conversion by molar mass, not a printed value. Like-named read-outs stand apart in the source and are kept apart here. Positions of bridges follow the written chain, without caps; N, C: chain ends. Residues, ends and D or L forms follow the SMILES beside them.

Data set [1] deals with Salmonella enterica subsp. enterica serotype Newport ATCC 6962.
In a further data set the test system is S. enterica. Set-up: method as in PMID 35543514. To be noted: sensitive strain S. enterica; ref [63]; cited from earlier work. The source says:
Table 1 Minimum inhibitory concentration (MIC) of the antimicrobial compounds tested (provided in µg/mL and in µmol/L) and residual activities over time in the cecal fermentation medium, after the introduction of the compounds at 25 (top) or 250 times (bottom) the minimal inhibitory concentration (MIC).

Data set [2] deals with chicken cecal microbiota. Put plainly: Batch fermentation of chicken cecal microbiota, 16S rRNA gene sequencing. The class given is cell-based, broiler chickens. The note with it: for Impact on genera / microbiota composition, in words: 24 h of culture; for Beta diversity (PCoA of weighted Unifrac), in words: 24 h of fermentation; for Effect on bacterial classes, in words: 12 h of cecal fermentation; for Abundance of Clostridia, in words: 25 vs 250 x MIC.

The subject of data set [3] is chicken cecal microbiota. Put plainly: Short-chain fatty acids in batch fermentation supernatant. To be noted: 24 h; for Acetate production, in words: 250 times the MIC. The data set is classed as cell-based, broiler chickens.
Data set [4] deals with Salmonella enterica subsp. enterica serotype Newport ATCC 6962. Put plainly: Residual activity in cecal fermentation medium, agar well diffusion. To be noted: over the 24 h of fermentation; agar diffusion tests. Background: A growth-free zone around the sample is the usual read-out of agar diffusion tests.
Data set [5] has as its system Streptococcus pyogenes RBL4. Described as above. The data set is classed as in vitro ADME. To be noted: over the 24 h of fermentation; based on inhibition diameters. On the procedure: Sterile Viande Levure (VL) medium (16 mL in 50 mL penicillin bottles), supplemented with Tween 80, bile salts, minerals, vitamins, porcine mucin (2.0 g/L), fructo-oligosaccharide (2.5 g/L), and citrus pectin (2.5 g/L), as described previously, and adjusted to pH 6 with 5 M NaOH, was inoculated with […] fecal slurry (10% inoculum, w/v). The antimicrobial compound was added in a volume of 1 mL to obtain 25 or 250 times the minimal inhibitory concentration (Table 1).
To ensure anaerobic conditions, the bottles were inoculated and sealed in an oxygen-free chamber. They were incubated at 41 °C and 80 rpm on an orbital shaker for up to 24 h. For each experimental treatment, samples were collected at 0, 12, and 24 h and kept at −80 °C until analysis.
The inhibitory activity of each antimicrobial agent was assessed qualitatively in terms of inhibition zones around agar wells. Briefly, 80 μL of sample was added to wells in pour plates (25 mL) seeded with 250 µL of overnight culture of indicator strain. Following 18 h of incubation at the appropriate temperature, inhibition diameters were measured. Photographs were taken using ChemiDoc XRS (Bio-Rad, Hercules, CA, USA).

The subject of another data set is C. perfringens. The note with it: sensitive strain C. perfringens; ref [62]; cited from earlier work.
The next data set has as its system L. ivanovii. Further details: method as in PMID 35170996. The note with it: sensitive strain L. ivanovii; ref [64]; cited from earlier work.
The subject of a further data set is Listeria ivanovii HPB28. Nature of the data set: Residual activity in cecal fermentation medium, agar well diffusion. To be noted: over the 24 h of fermentation; agar diffusion tests.

The MIC is the smallest concentration in the dilution series that meets the test's criterion for growth inhibition.

Take `O=C(O)c1cn(C2CC2)c2cc(N3CCNCC3)c(F)cc2c1=O` [Ciprofloxacin]: in data set [1], the “Residual Activity 0 h” value is given as “+++ +++”. Moreover, in the data set with S. enterica, the “MIC (µM)” value is 0.60 µM (≈ 0.199 µg/mL) and the “MIC (µg/mL)” value was 0.19 µg/mL (≈ 0.573 µM). Further, the “Impact on genera / microbiota composition, in words” value with chicken cecal microbiota [2] was “impacted Gram-positive (Clostridia, Enterococcus and Streptococcus) as well as Gram-negative bacteria (Escherichia/Shigella and Gallibacterium)”. The “Genera Enterococcus, in words” value in the data set on chicken cecal microbiota [2] (after 24 h) is “reduced”.
As to `CC[C@H](C)[C@H](NC(=O)CNC(=O)[C@@H](NC(=O)[C@H](Cc1ccccc1)NC(=O)[C@H](Cc1ccc(O)cc1)NC(=O)[C@@H]1CCC(=O)NCC(=O)NCC(=O)N[C@@H](C)C(=O)NCC(=O)N[C@@H](Cc2cnc[nH]2)C(=O)N[C@@H](C(C)C)C(=O)N2CCC[C@H]2C(=O)N1)C(C)C)C(=O)NCC(=O)N[C@H](C(=O)N1CCC[C@H]1C(=O)N[C@H](C(=O)N[C@@H](CO)C(=O)N[C@@H](Cc1ccccc1)C(=O)N[C@@H](Cc1ccc(O)cc1)C(=O)NCC(=O)O)[C@@H](C)CC)[C@@H](C)O` [Microcin J25] (GGAGHVPEYFVGIGTPISFYG-OH; lactam N-8), the “Stability of inhibitory activity in batch fermentation, in words” value (“Stability of inhibitory activity” below) in [1] is listed as “significant inhibitory activity at 24 h”.
`CO[C@H]1/C=C/O[C@@]2(C)Oc3c(C)c(O)c4c(O)c(c(/C=N/N5CCN(C)CC5)c(O)c4c3C2=O)NC(=O)/C(C)=C\C=C\[C@H](C)[C@H](O)[C@@H](C)[C@@H](O)[C@@H](C)[C@H](OC(C)=O)[C@@H]1C` [Rifampicin]: the “Acetate production, in words” value in the data set on chicken cecal microbiota [3] is on record as “reached maximal ranges”. In addition, in the data set on S. enterica, the “MIC (µM)” value is reported as 0.47 µM (≈ 0.387 µg/mL) and the “MIC (µg/mL)” value is 0.39 µg/mL (≈ 0.474 µM). Also, the “Relative abundance of Bacteroidia” value in the data set on chicken cecal microbiota [2] (24 h, concentrations not assigned) worked out at 0.02. For the same molecule, in the data set with chicken cecal microbiota [2], the “Impact on genera / microbiota composition, in words” value was “mainly impacted the genera Bacteroides and Parabacteroides”; the “Beta diversity (PCoA of weighted Unifrac), in words” value is listed as “tended to cluster separately”. In addition, in the data set on chicken cecal microbiota [2] (after 24 h, lowest concentration), the “Genera Enterococcus, in words” value is recorded as “reduced”.
`CN(C)[C@@H]1C(O)=C(C(N)=O)C(=O)[C@@]2(O)C(O)=C3C(=O)c4c(O)cccc4[C@@](C)(O)[C@H]3C[C@@H]12` [Tetracycline]: the “Residual Activity 6 h” value in [1] is “+++ +++”. In addition, in data set [4], the “Stability of inhibitory activity” value is on record as “remained highly active”. Also, the “Impact on genera / microbiota composition, in words” value in the data set on chicken cecal microbiota [2] was “mainly affected the Gram-negative bacteria Gallibacterium and the Gram-positive bacteria Phascolarctobacterium”. Moreover, in the data set with chicken cecal microbiota [2] (after 24 h), the “Genera Enterococcus, in words” value was “reduced”.
Consider Bacitracin, for which the “Stability of inhibitory activity” value in [5] is “least stable”. Moreover, the “Acetate production, in words” value with chicken cecal microbiota [3] is on record as “reached maximal ranges”. Further, the “Butyrate levels, in words” value with chicken cecal microbiota [3] (UHPLC-UV 210 nm) is listed as “significant decrease”. In addition, in the data set with chicken cecal microbiota [2], the “Effect on bacterial classes, in words” value is “dose-dependent effects”; the “Impact on genera / microbiota composition, in words” value was “mainly impacted Streptococcus and Ruminococcus together with different Clostridia (Lachnoclostridium, Erysipelatoclostridium, and Oscillibacter), while promoting the genera Escherichia/Shigella”. Further, the “MIC” value in the data set on C. perfringens was 1.50 µg/mL.
Take Colistin: the “Butyrate levels, in words” value with chicken cecal microbiota [3] (highest concentration) is recorded as “tended to decrease”. Besides, in data set [1], the “Residual Activity 0 h” value is listed as “++ ++”, the “Residual Activity 6 h” value is recorded as “++ ++”, the “Residual Activity 12 h” value is “++ ++” and the “Residual Activity 24 h” value is “++ ++”. Besides, in the data set on S. enterica, the “MIC (µM)” value is 0.69 µM and the “MIC (µg/mL)” value was 0.80 µg/mL. Besides, in the data set with chicken cecal microbiota [2], the “Relative abundance of Escherichia, in words” value is reported as “dropped”; the “Abundance of Clostridia, in words” value is given as “dose-dependent decrease”; the “Effect on bacterial classes, in words” value is “dose-dependent effects”; the “Impact on genera / microbiota composition, in words” value was “strongly impaired Escherichia/Shigella together with other Gram-negative bacteria (Gallibacterium and Butyricimonas)”. The “Relative abundance of Gammaproteobacteria” value in the data set with chicken cecal microbiota [2] (25× MIC) came to 0.03. In the data set with chicken cecal microbiota [2] (after 12 h, compared to bacitracin, rifampicin, tetracycline, MccE492 and nisin), the “Alpha diversity (Shannon entropy), in words” value (shortened to “Alpha diversity”) is reported as “lower alpha diversity”. In addition, in the data set with chicken cecal microbiota [2] (after 24 h), the “Alpha diversity” value is “lowest alpha diversity”.
Consider Nisin Z, for which, in the data set on L. ivanovii, the “MIC (µM)” value is listed as 0.18 µM and the “MIC (µg/mL)” value is recorded as 1.56 µg/mL. The “Acetate production, in words” value in the data set with chicken cecal microbiota [3] is recorded as “reached maximal ranges”. The “Butyrate levels, in words” value in the data set with chicken cecal microbiota [3] (lowest concentration) is reported as “tended to decrease”. Further, in the data set on chicken cecal microbiota [2], the “Abundance of Clostridia, in words” value is “dose-dependent decrease”; the “Effect on bacterial classes, in words” value is listed as “dose-dependent effects”; the “Impact on genera / microbiota composition, in words” value is recorded as “had the most impact on microbiota composition”; the “Beta diversity (PCoA of weighted Unifrac), in words” value is recorded as “tended to cluster separately”. Moreover, the “Genera Enterococcus, in words” value in the data set on chicken cecal microbiota [2] (after 24 h) is on record as “reduced”. In the data set with chicken cecal microbiota [2] (t0, as compared to control), the “Alpha diversity” value is listed as “highest diversity”.
Consider “Pediocin PA-1 (M31L) (KYYGNGVTCGKHSCSVDWGKATTCIINNGALAWATGGHQGNHKC; UniProt P29430 19-62, looked up, variant M31L) [44 aa linear peptide containing two disulfide bridges, M31L variant, prepared by solid-phase peptide synthesis]”, for which the “Stability of inhibitory activity” value in the data set on Listeria ivanovii HPB28 is given as “weak activity”. Also, the “Butyrate levels, in words” value with chicken cecal microbiota [3] (lowest concentration) was “tended to decrease”. For the same molecule, in the data set with chicken cecal microbiota [2], the “Effect on bacterial classes, in words” value was “dose-dependent effects” and the “Impact on genera / microbiota composition, in words” value is “moderate effect”. Also, the “Genera Enterococcus, in words” value in the data set on chicken cecal microbiota [2] (after 24 h, highest concentration) is “reduced”.

B1: Microcin E492 (peptide, UniProt Q9Z4N4 16-99, looked up)
Microcin E492: GETDPNTQLLNDLGNNMAWGAALGAPGGLGSAALGAAGGALQTVGQGLIDHGPVNVPIPVLIGPSWNGSGSGYNSATSSSGSGS
notes: 84 aa siderophore peptide produced by Klebsiella pneumoniae, produced heterologously in E. coli MC4100
On to B1, for which, in the data set on S. enterica, the “MIC (µM)” value is recorded as 0.18 µM and the “MIC (µg/mL)” value is 1.56 µg/mL. For the same molecule, the “Impact on genera / microbiota composition, in words” value with chicken cecal microbiota [2] is reported as “only minor effects”. Besides, the “Genera Enterococcus, in words” value in the data set on chicken cecal microbiota [2] (after 24 h) is “reduced”. For the same molecule, the “Alteration in the relative abundance of the identified taxa, in words” value in the data set on chicken cecal microbiota [2] (class level) is “neither MccJ25 nor MccE492 induced a statistically significant alteration”. In addition, the “Alpha diversity” value in the data set on chicken cecal microbiota [2] (t0, as compared to control) is “highest diversity”.
